Reference: patent US5206252A, “Thiadiazolyl-amino derivatives of benzopyrans and indanes” (American Home Products Corporation, priority 1992, dated 1993)
pIC50: −log10 of the molar value.

Tested on: Isolated Rat Bladder Strips
Experiment: Inhibition of Contractions in Isolated Rat Bladder Strips (smooth muscle relaxing activity, 15 mM KCl-enhanced contractile activity)
Set-up: species or system Sprague-Dawley rats
Conditions: for inhibition at 30 µM: Rattus norvegicus, maximum percentage inhibition of contractile activity, read-out: Inhibition of Force (%) at (X) μM
Description: The smooth muscle relaxing activity of the compounds of this invention was established in accordance with standard pharmaceutically accepted test procedures in representative compounds as follows:
Sprague-Dawley rats (150-200 g) are rendered unconscious by CO2 asphyxiation and then euthanized by cervical dislocation. The bladder is removed into warm (37 deg.C.) physiological salt solution (PSS) of the following composition (mM): NaCl, 118.4; KCl, 4.7; CaCl2, 2.5; […]; NaHCO3, 24.9; KH2 PO4, 1.2; glucose, 11.1; EDTA, 0.023; gassed with […]; pH 7.4. The bladder is opened and then cut into strips 1-2 mm in width and 7-10 mm in length. The strips are subsequently suspended in a 10 ml tissue bath under an initial resting tension of 1.5 g. The strips are held in place by two surgical clips one of which is attached to fixed hook while the other is attached to an isometric force transducer. […] The carbachol is then washed out and the tissue allowed to relax to its resting level of activity. Following an additional 30 minute period of recovery an additional 15 mM KCl are introduced into the tissue bath. This increase in KCl concentration results in a large increase in the amplitude of spontaneous contractions (and initiation of contractions in previously quiescent strips) superimposed upon a small increase in basal tone. Following stabilization of this enhanced level of contractile activity, incremental increases in the concentration of test compound or vehicle are introduced into the tissue bath. Contractile activity is measured for each compound or vehicle concentration during the last min of a 30 min challenge.
Isometric force developed by the bladder strips is measured using a […] to elicit 50% inhibition of pre-drug contractile activity (IC50 concentration) is calculated from this concentration-response curve. The maximum percentage inhibition of contractile activity evoked by a test compound is also recorded for concentrations of test compound<or equal to 30 uM.

pIC50 (0.5 h, isolated rat bladder strips, 15 mM KCl, last min of a 30 min challenge, read-out: IC50 (concentration required to elicit 50% inhibition of pre-drug contractile activity)) | Structure (SMILES) | inhibition at 30 µM [%]
– | CC1(C)Oc2ccc(OC(F)(F)F)cc2[C@@H](NC2=NS(=O)(=O)N=C2N)[C@@H]1O [Example 2, (-)-(3S,4R)-4-(4-Amino-1,1-dioxo-[1,2,5]thiadiazol-3-ylamino)2,2-dimethyl-6-trifluoromethoxy-chroman-3-ol] | 33
5.32 | CNC1=NS(=O)(=O)N=C1N[C@@H]1c2cc(OC(F)(F)F)ccc2OC(C)(C)[C@H]1O [Example 3, (-)-(3S,4R)-2,2-Dimethyl-4-(4-methylamino-1,1-dioxo-[1,2,5]-thiadiazol-3-ylamino)-6-trifluoromethoxy-chroman-3-ol] | 95
